Data on 2 compounds can be found in patent US11226337B2, “Chemoproteomic profiling of protein electrophilic and oxidative post-translational modifications” (Zenagem, LLC, priority 2017, dated 2022).

Assay in all cases: SILAC RP-ABPP
Holding throughout (format): cell-based

The target of test [1] is T1, SERPINE1 Plasminogen activator inhibitor 1 (P05121) (Homo sapiens, UniProt P05121).
T1 construct: In Situ Labelling of Cells with Hydrazine Probes for MS Experiments; endogenous in cells
Particulars: SILAC H/L, MDA-MB-231. As for the experimental part: (§1) For MS-based experiments, labelling was performed in a similar manner as described above in Example 2, maintaining the same concentrations of probes. Modifications to this protocol included using isotopically ‘light’ and ‘heavy’ SILAC cells that were also grown to near complete confluence prior to treatment. Isotopically light cells were treated with the non-clickable hydrazine probe (at the same concentration as the probe in ‘enrichment’ experiments) or the probe in the presence of 10-fold excess non-clickable hydrazine probe as a competitor (in ‘competition’ experiments). Isotopically heavy cells were treated with the probe for both types of experiments. These treatments were performed in non-SILAC media. Following treatments, cells were washed with cold PBS to remove the probe-containing media, harvested by scraping, collected by centrifugation (1,400 g, 3 min, 4° C.), washed again by resuspension in cold PBS and frozen as pellets at −80° C. until use.
(§2) The fractionated equimolar mixture of heavy and light soluble proteomes (1-1.5 mg) was diluted to 1 mL in PBS. Click reactions were scaled accordingly (except for biotin-azide) to maintain final concentrations of 0.1 mM TBTA, 1 mM CuSO4, 100 μM biotin-azide (10 mM in DMSO) and 1 mM TCEP. The mixture was vortexed and placed on a rotator at ambient temperature for 1 hour. Sequential addition of and mixture with pre-chilled methanol (MeOH, 2 mL), chloroform (CHCl3, 0.5 mL) and PBS (1 mL) on ice quenched the reaction. The precipitated proteome was centrifuged (5,000 g, 10 min, 4° C.) to fractionate the protein interphase from the organic and aqueous solvent layers. The protein pellet was washed with cold 1:1 MeOH:CHCl3 (3×1 mL), mildly sonicated in cold 4:1 MeOH:CHCl3 (2.5 mL) and pelleted once more by centrifugation (5,000 g, 10 min, 4° C.) to ensure click reagents were efficiently removed.
(§3) Heavy and light parent ion chromatograms associated with successfully identified peptides were extracted and compared using CIMAGE software as previously described^69. At least one ion of a co-eluting heavy-light pair must be accurately identified from a fragmentation event that occurred within the retention time window (±10 min) of parent ion elution. To ensure that the correct pair of peaks is quantified, chromatograms are extracted within a 10 ppm error tolerance of the predicted m/z, the signal-to-noise ratio must be >2.5 and the ‘co-elution correlation score’ and ‘envelope correlation score’ must have R^2 values ≥0.8. In addition, peptides detected as ‘singletons,’ where only the heavy ion of a peptide pair was identified, but for which passed all other filtering parameters, are given a default assigned ratio of ‘20,’ which is defined as any measured ratio that is ≥20.
(§4) To further eliminate false positives and any stochastic variability in the data, protein ratios were then determined by the median peptide ratio derived from three or more unique quantified peptides. Protein ratios that complied with these criteria from a single experiment were then averaged with ratios acquired from ≥3 replicates to provide final values for each type of experiment in both cell lines with both probes. […] Most importantly, there are no robustly measured ratios for proteins identified as probe 1 targets that had measured ratios of ˜1 with probe 2. Probe targets in HEK293T and MDA-MB-231 cells represent data combined from ≥3 independent biological replicates with each cell type performed with several independent batches of synthesized probes over a period of almost two years. […]

Test [2] concerns the target T2, PLOD1 Procollagenlysine, 2oxoglutarate (Q02809) (Homo sapiens, UniProt Q02809).
T2 construct: In Situ Labelling of Cells with Hydrazine Probes for MS Experiments; endogenous in cells
T2 sequence (Q02809 19-727): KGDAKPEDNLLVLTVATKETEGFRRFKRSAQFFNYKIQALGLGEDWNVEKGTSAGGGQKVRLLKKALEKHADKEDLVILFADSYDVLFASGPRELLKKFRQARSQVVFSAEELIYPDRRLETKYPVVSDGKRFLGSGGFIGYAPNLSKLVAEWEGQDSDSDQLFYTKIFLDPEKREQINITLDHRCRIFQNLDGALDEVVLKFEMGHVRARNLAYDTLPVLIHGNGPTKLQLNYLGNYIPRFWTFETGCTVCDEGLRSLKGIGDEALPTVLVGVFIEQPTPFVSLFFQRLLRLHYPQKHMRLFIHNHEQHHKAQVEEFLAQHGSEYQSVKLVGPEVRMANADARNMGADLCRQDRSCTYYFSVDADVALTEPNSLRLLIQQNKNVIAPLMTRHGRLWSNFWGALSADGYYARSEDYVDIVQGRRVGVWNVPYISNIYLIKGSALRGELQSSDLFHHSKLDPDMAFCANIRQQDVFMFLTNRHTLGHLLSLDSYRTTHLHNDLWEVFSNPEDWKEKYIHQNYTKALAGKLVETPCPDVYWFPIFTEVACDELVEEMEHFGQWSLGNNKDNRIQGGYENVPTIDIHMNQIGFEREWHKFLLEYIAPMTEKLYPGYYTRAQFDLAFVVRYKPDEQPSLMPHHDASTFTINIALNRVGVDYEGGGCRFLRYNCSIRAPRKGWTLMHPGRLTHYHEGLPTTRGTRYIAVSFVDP
Particulars: SILAC H/L, MDA-MB-231. As for the experimental part: as §1, §2, §3, §4

Test [3] has as its target T3, ALDH1B1 Aldehyde dehydrogenase X (P30837) (Homo sapiens, UniProt P30837).
T3 construct: shared by both the endogenous and recombinant forms of these proteins; endogenous in cells; host or cells: HEK293T and MDA-MB-231
T3 sequence (P30837 18-517): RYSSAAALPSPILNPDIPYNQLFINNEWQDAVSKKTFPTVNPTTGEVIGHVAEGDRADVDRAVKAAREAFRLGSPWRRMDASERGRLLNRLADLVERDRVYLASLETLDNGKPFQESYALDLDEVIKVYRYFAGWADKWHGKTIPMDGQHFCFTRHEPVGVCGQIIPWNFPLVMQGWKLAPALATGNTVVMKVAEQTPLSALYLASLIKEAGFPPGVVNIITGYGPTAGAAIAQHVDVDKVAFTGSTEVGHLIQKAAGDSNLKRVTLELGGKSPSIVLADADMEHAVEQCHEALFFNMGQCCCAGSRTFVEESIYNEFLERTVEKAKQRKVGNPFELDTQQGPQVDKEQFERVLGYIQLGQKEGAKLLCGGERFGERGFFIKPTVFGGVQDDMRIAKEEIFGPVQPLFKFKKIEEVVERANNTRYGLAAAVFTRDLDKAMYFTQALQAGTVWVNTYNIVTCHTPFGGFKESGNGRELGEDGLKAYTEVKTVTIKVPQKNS
The note with it: SILAC H/L, HEK293T. How it is done: as §1, §2, §3, §4

The target in test [4] is T4, P4HA1 Prolyl 4hydroxylase subunit alpha1 (P13674) (Homo sapiens, UniProt P13674).
T4 construct: In Situ Labelling of Cells with Hydrazine Probes for MS Experiments; endogenous in cells
T4 sequence (P13674 18-534): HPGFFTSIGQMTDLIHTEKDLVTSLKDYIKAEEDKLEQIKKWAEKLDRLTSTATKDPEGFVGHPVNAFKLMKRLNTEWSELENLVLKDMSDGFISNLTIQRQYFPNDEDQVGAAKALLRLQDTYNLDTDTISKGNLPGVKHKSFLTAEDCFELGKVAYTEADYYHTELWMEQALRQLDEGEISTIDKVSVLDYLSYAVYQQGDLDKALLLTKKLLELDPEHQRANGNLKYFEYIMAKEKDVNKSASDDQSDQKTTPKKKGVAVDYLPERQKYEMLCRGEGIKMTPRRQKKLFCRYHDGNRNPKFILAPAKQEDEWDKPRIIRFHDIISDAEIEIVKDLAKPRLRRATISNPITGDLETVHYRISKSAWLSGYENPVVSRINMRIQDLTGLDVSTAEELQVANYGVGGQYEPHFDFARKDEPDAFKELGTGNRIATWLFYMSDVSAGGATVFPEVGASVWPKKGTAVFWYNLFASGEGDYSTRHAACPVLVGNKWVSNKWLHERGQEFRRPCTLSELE
T4 sequence (P07237 18-508 partner): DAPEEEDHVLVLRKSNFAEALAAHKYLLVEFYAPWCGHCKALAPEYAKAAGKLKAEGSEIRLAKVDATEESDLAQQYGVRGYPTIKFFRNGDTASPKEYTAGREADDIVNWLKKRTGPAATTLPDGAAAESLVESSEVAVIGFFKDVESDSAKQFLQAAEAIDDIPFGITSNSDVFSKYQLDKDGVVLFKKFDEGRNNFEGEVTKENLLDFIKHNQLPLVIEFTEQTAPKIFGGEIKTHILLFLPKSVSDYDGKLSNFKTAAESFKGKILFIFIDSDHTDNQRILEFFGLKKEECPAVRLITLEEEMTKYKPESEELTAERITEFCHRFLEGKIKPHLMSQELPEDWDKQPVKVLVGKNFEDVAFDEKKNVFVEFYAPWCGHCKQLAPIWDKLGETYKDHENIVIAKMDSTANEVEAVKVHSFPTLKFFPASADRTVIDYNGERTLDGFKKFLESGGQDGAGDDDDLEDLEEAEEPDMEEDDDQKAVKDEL
Particulars: SILAC H/L, MDA-MB-231. As for the experimental part: as §1, §2, §3, §4

Structures are written as SMILES.

T1 sequence (P05121 24-402): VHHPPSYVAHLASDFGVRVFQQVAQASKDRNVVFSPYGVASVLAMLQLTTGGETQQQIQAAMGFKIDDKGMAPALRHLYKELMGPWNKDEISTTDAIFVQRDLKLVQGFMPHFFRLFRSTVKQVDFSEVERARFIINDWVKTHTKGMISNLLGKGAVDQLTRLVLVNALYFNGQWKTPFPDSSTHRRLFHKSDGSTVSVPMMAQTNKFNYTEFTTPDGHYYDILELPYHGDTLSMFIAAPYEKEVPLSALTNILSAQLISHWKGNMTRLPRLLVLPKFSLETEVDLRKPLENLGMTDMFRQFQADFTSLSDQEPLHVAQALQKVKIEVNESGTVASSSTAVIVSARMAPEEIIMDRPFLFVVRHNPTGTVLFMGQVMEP

Take `C#CCCNC(=O)c1ccc(NN)cc1.Cl` [probe 2, N-(but-3-yn-1-yl)-4-hydrazinylbenzamide hydrochloride]: the enrichment ratioavg is on record as 20 in test [1] (probe 2 1 mM 0.5 h vs probe 4), 8 in test [2] (probe 2 1 mM 0.5 h vs probe 4), 11 in test [3] (probe 2 1 mM 0.5 h vs probe 4) and 8 in test [4] (probe 2 1 mM 0.5 h vs probe 4). Besides, the competition ratioavg in test [1] (probe 2 vs probe 2+10x probe 4) is 3; in test [2] (probe 2 vs probe 2+10x probe 4), 3; in test [3] (probe 2 vs probe 2+10x probe 4), 5; in test [4] (probe 2 vs probe 2+10x probe 4), 3.

In the case of `C#CCNN.Cl` [probe 1, prop-2-yn-1-ylhydrazine hydrochloride], the enrichment ratioavg in test [1] (probe 1 3 mM 0.5 h vs probe 3) turned out to be 17; in test [2] (probe 1 3 mM 0.5 h vs probe 3), 6; in test [3] (probe 1 3 mM 0.5 h vs probe 3), 6; in test [4] (probe 1 3 mM 0.5 h vs probe 3), 15. For the same compound, the competition ratioavg worked out at 3 in test [1] (probe 1 vs probe 1+10x probe 3), 3 in test [2] (probe 1 vs probe 1+10x probe 3), 3 in test [3] (probe 1 vs probe 1+10x probe 3) and 2 in test [4] (probe 1 vs probe 1+10x probe 3).
